Reference: ChEMBL document CHEMBL3045500, “Antituberculosis and antibacterial evaluations of some novel phenyl pyrazolone-substituted 1h-benzo[g]pyrazolo[3,4-b]quinoline-3-ylamine derivatives” (2012)
In brackets after ≈: the same amount, converted by molar mass.

Experiments:
[1] = test system: Mycobacterium tuberculosis; assay: Antimicrobial activity against Mycobacterium tuberculosis H37Rv after 10 days by BACTEC MGIT method; format: functional; details: 240 h
Bacillus subtilis [2] = assay: Antimicrobial activity against Bacillus subtilis MTCC 619 after 24 hr by disk diffusion method; format: functional; details: for MIC: Bacillus subtilis, MTCC 619, 24 h
Staphylococcus aureus [3] = assay: Antimicrobial activity against Staphylococcus aureus MTCC 96 after 24 hr by disk diffusion method; format: functional; details: for MIC: Staphylococcus aureus, MTCC 96, 24 h
Escherichia coli [4] = assay: Antimicrobial activity against Escherichia coli MTCC 739 after 24 hr by disk diffusion method; format: functional; details: for MIC: Escherichia coli, MTCC 739, 24 h
Pseudomonas aeruginosa [5] = assay: Antimicrobial activity against Pseudomonas aeruginosa MTCC 741 after 24 hr by disk diffusion method; format: functional; details: for MIC: Pseudomonas aeruginosa, MTCC 741, 24 h
Staphylococcus aureus [6] = assay: Antimicrobial activity against Staphylococcus aureus MTCC 96 at 100 ug/disc after 24 hr by disk diffusion method; details: MTCC 96, 24 h, read-out: IZ
Bacillus subtilis [7] = assay: microbe, parasite or virus in culture; details: MTCC 619, 24 h, read-out: IZ
Description: Antimicrobial activity against Bacillus subtilis MTCC 619 at 100 ug/disk after 24 hr by disk diffusion method

Pseudomonas aeruginosa [8] = assay: microbe, parasite or virus in culture; details: MTCC 741, 24 h, read-out: IZ
Description: Antimicrobial activity against Pseudomonas aeruginosa MTCC 741 at 100 ug/disk after 24 hr by disk diffusion method

Escherichia coli [9] = assay: microbe, parasite or virus in culture; details: MTCC 739, 24 h, read-out: IZ
Description: Antimicrobial activity against Escherichia coli MTCC 739 at 100 ug/disk after 24 hr by disk diffusion method

| SMILES | MIC99 [1] | inhibition zone (IZ) (Bacillus subtilis [2]) | MIC (Bacillus subtilis [2]) | inhibition zone (IZ) (Staphylococcus aureus [3]) | MIC (Staphylococcus aureus [3]) | inhibition zone (IZ) (Escherichia coli [4]) | MIC (Escherichia coli [4]) | inhibition zone (IZ) (Pseudomonas aeruginosa [5]) | MIC (Pseudomonas aeruginosa [5]) | zone of inhibition at 100 µg/disc (Staphylococcus aureus [6]) | zone of inhibition at 100 µg/disc (Bacillus subtilis [7]) | zone of inhibition at 100 µg/disc (Pseudomonas aeruginosa [8]) | zone of inhibition at 100 µg/disc (Escherichia coli [9]) |
| --- | --- | --- | --- | --- | --- | --- | --- | --- | --- | --- | --- | --- | --- |
| CC1=NN(c2cccc(S(=O)(=O)O)c2)C(=O)C1/N=N/c1n[nH]c2nc3cc4ccccc4cc3cc12 (centres undefined) | 500 µg/mL (≈ 1000 µM) | 12 mm | 100 µg/mL (≈ 200 µM) | 11 mm | 100 µg/mL (≈ 200 µM) | 10 mm | 100 µg/mL (≈ 200 µM) | <10 mm | 100 µg/mL (≈ 200 µM) |  |  |  |  |
| CC1=NN(c2cc(S(=O)(=O)O)ccc2Cl)C(=O)C1/N=N/c1n[nH]c2nc3cc4ccccc4cc3cc12 (centres undefined) | 1000 µg/mL (≈ 1870 µM) | 14 mm | 50 µg/mL (≈ 93.6 µM) | 18 mm | 50 µg/mL (≈ 93.6 µM) | 18 mm | 100 µg/mL (≈ 187 µM) | 14 mm | 100 µg/mL (≈ 187 µM) |  |  |  |  |
| CC1=NN(c2cc(Cl)ccc2Cl)C(=O)C1/N=N/c1n[nH]c2nc3cc4ccccc4cc3cc12 (centres undefined) | 62.5 µg/mL (≈ 128 µM) | 24 mm | 20 µg/mL (≈ 41 µM) | 22 mm | 20 µg/mL (≈ 41 µM) | 19 mm | 50 µg/mL (≈ 102 µM) | 18 mm | 50 µg/mL (≈ 102 µM) |  |  |  |  |
| CC1=NN(c2ccccc2Cl)C(=O)C1/N=N/c1n[nH]c2nc3cc4ccccc4cc3cc12 (centres undefined) | 250 µg/mL (≈ 551 µM) | 16 mm | 50 µg/mL (≈ 110 µM) | 16 mm | 50 µg/mL (≈ 110 µM) | 16 mm | 50 µg/mL (≈ 110 µM) | 16 mm | 50 µg/mL (≈ 110 µM) |  |  |  |  |
| CC1=NN(c2cccc(Cl)c2)C(=O)C1/N=N/c1n[nH]c2nc3cc4ccccc4cc3cc12 (centres undefined) | 250 µg/mL (≈ 551 µM) | 18 mm | 50 µg/mL (≈ 110 µM) | 16 mm | 50 µg/mL (≈ 110 µM) | 17 mm | 50 µg/mL (≈ 110 µM) | 15 mm | 50 µg/mL (≈ 110 µM) |  |  |  |  |
| CC1=NN(c2ccc(Cl)c(Cl)c2)C(=O)C1/N=N/c1n[nH]c2nc3cc4ccccc4cc3cc12 (centres undefined) | 62.5 µg/mL (≈ 128 µM) | 24 mm | 20 µg/mL (≈ 41 µM) | 20 mm | 20 µg/mL (≈ 41 µM) | 20 mm | 50 µg/mL (≈ 102 µM) | 21 mm | 50 µg/mL (≈ 102 µM) |  |  |  |  |
| CC1=NN(c2ccc(S(=O)(=O)O)cc2C)C(=O)C1/N=N/c1n[nH]c2nc3cc4ccccc4cc3cc12 (centres undefined) | 500 µg/mL (≈ 974 µM) | 11 mm | 100 µg/mL (≈ 195 µM) | 12 mm | 100 µg/mL (≈ 195 µM) | 12 mm | 100 µg/mL (≈ 195 µM) | 11 mm | 100 µg/mL (≈ 195 µM) |  |  |  |  |
| CC1=NN(c2ccc(S(=O)(=O)O)cc2)C(=O)C1/N=N/c1n[nH]c2nc3cc4ccccc4cc3cc12 (centres undefined) | 1000 µg/mL (≈ 2000 µM) | 12 mm | 100 µg/mL (≈ 200 µM) | 14 mm | 100 µg/mL (≈ 200 µM) | 10 mm | 100 µg/mL (≈ 200 µM) | <10 mm | 100 µg/mL (≈ 200 µM) |  |  |  |  |
| CC1=NN(c2cc(Cl)c(S(=O)(=O)O)cc2Cl)C(=O)C1/N=N/c1n[nH]c2nc3cc4ccccc4cc3cc12 (centres undefined) | 500 µg/mL (≈ 880 µM) | 20 mm | 50 µg/mL (≈ 88 µM) | 18 mm | 50 µg/mL (≈ 88 µM) | 16 mm | 100 µg/mL (≈ 176 µM) | 15 mm | 100 µg/mL (≈ 176 µM) |  |  |  |  |
| CC1=NN(c2ccc(C)cc2)C(=O)C1/N=N/c1n[nH]c2nc3cc4ccccc4cc3cc12 (centres undefined) | 125 µg/mL (≈ 288 µM) | 16 mm | 50 µg/mL (≈ 115 µM) | 14 mm | 50 µg/mL (≈ 115 µM) | 12 mm | 100 µg/mL (≈ 231 µM) | 14 mm | 100 µg/mL (≈ 231 µM) |  |  |  |  |
| O=C(O)c1cn(C2CC2)c2cc(N3CCNCC3)c(F)cc2c1=O [CIPROFLOXACIN] |  |  | ≤ 1 µg/mL |  | ≤ 1 µg/mL |  | ≤ 1 µg/mL |  | ≤ 1 µg/mL | 32 mm | 33 mm | 31 mm | 30 mm |
| NNC(=O)c1ccncc1 [ISONIAZID] | 0.2 µg/mL (≈ 1.46 µM) |  |  |  |  |  |  |  |  |  |  |  |  |
